Reference: patent US7459282B2, “Use of c-Jun or c-Jun activating agents such as UV or c-Jun N-terminal kinases (JNKs) for treating cancer” (Biotech Research Ventures Pte Limited, priority 2001, dated 2008)
Square brackets hold non-standard residues; d marks the D form. Peptide text beside a SMILES is read from it. Nle = CCCC[C@H](N)C(=O)O

Assays:
[1] = system: p73; assay: Egfp reporter screen for p73 activation in H1299-p53RE cells; type: cell-based, human; details: p53-null H1299 reporter cells
From the text: The screen utilises a p53 null cell line, H1299, which is a human lung cancer cell line. In these cells, p53 is not active as the gene is deleted. The inventors have transfected a plasmid containing the p53/p73 binding DNA sequences (or responsive element) driving the enhanced green fluorescent protein gene (Egfp) as a reporter (FIG. 8). Generally, the reporter would be turned “on” when p53 or its homologues bind to the responsive element. […] However, when the cells are exposed to compounds that activate p73, which is normally present in a dormant state in these cells, then these cells would fluoresce and would be visible as green cells under the fluorescence microscope.
It is important to note that all the cells in the population expressed Egfp, implying that the cell-system generated is homogenous and results in a 100% response.

[2] = system: p73; assay: Western blot of endogenous p73 levels in fibroblasts after cisplatin; type: cell-based, mouse; parameters: levels of p73 protein: dose or concentration left out as unconfirmed
Protocol: FIG. 1. […] These extracts were analysed by Western blotting for the expression of p73 and phosphorylated c-Jun using specific antibodies.
FIG. 2. c-Jun is necessary for cisplatin-induced p73 expression and apoptosis. […] (b) Extracts from cells described in (a) were analyzed for endogenous p73 levels by Western blotting.
Although p73 is a structural and functional homologue of the p53 tumour suppressor protein, p73 is only activated by a subset of agents that activate p53. […] The inventors have thus investigated the molecular mechanism(s) by which p73 activity is regulated. […] The increase in p73 levels in cisplatin-treated cells correlates with the phosphorylation of the proto-oncogene product, c-Jun (FIG. 1). Phosphorylated c-Jun was not detected upon gamma-irradiation of cells (FIG. 1).

[3] = system: p73; assay: Western blot of p73 in MCF-7-p73 cells after proteosome inhibitor; type: cell-based, human; details: proteosome inhibitor for 3 hours
Protocol: FIG. 4. c-Jun is required for UV-mediated p73 stabilization. (a) MCF-7 cells stably transfected with p73 and parental MCF-7 cells were treated with the proteosome inhibitor for 3 hours or UV irradiated (50 J/m^2) and cell extracts were analyzed 2 hours post-irradiation by Western blotting as described in FIG. 1. (b) c-Jun^−/− and c-Jun^−/−+c-Jun mouse embryonic fibroblasts were transfected with the indicated plasmids and were untreated or UVC irradiated (40 J/m^2) or gamma-irradiation (10Gy) 24 hours post-transfection. 24 hours after irradiation, cell extracts were prepared and analyzed for p73 protein levels by Western blotting.
To analyze if c-Jun provides the stabilization signal, the inventors generated MCF-7 breast carcinoma cells stably expressing p73 (MCF-7-p73 cells), which would thus provide a detectable level of basal p73 expression. The overexpressed p73 was expressed in these cells (FIG. 4a). […] However, when these cells were treated with UV irradiation, which is a potent inducer of c-Jun but not p73 (Jost C A. et al, p73 is a simian [correction of human] p53-related protein that can induce apoptosis, Nature, 1997, Sep. 11; 389(6647):191-4.), p73 expression was detected as early as 2 hours post-irradiation, in contrast to the parental MCF-7 cells (FIG. 4a).

Row | Structure (SMILES) | response of the cell population (cells expressing Egfp) ([1]; cisplatin treated) [%] | expression of Egfp (endogenous p73 activity) ([1]; flow cytometer) | p73 protein induction ([2]; absence of c-Abl, cisplatin) | p73 protein induction ([2]; c-Jun-/- cells, cisplatin 25 μM, 24 hours) | p73 protein induction ([2]; jun-/-+c-Jun cells, cisplatin 25 μM, 24 hours) | levels of p73 protein ([2]; wild-type mouse embryonic fibroblasts, cisplatin (FIG. 1), 24 hours post-treatment) | expression of p73 protein [3]
1 | N.N.[Cl][Pt][Cl] [cisplatin] | 100 | expression of Egfp in all the cells | severely compromised | abrogated the induction of p73 | induced significantly | increase in the levels of p73 protein | –
2 | CCCC[C@@H](C=O)NC(=O)[C@H](CC(C)C)NC(=O)[C@H](CC(C)C)NC(C)=O [ALLN] (Ac-Leu-Leu-[Nle]-aldehyde) | – | – | – | – | – | – | did not result in the increased expression of p73 protein
